From patent US5750574A, “Fluorinated N-arylmethylamino derivatives of cyclobutene-3,4-diones” (American Home Products Corporation, priority 1997, dated 1998)

Key:
[1] = tested on: hypertrophied bladder (detrussor) smooth muscle; test: Inhibition of spontaneous contractions in vivo, hypertrophied rat bladder model; set-up: species or system female Sprague-Dawley rat; settings: 3 mg/kg p.o.; 4 animals; conscious rats
Excerpt: In addition, we tested the ability of compounds to inhibit the hyperactivity of hypertrophied bladder (detrussor) smooth muscle in conscious female rats with hypertrophied bladders and thereby alleviate urinary incontinence in rats according to the following protocol described by Malmgren (A. Malmgren, K. E. Andersson, C. Sjogren, P. O. Andersson, Effects of pinacidil and Cromakalim (BRL 34915) on Bladder Function in Rats with Detrusor Instability, J. Urol. 142:1134, 1989.):
Female Sprague-Dawley rats, ranging in weight from 190-210 g are used. Up to 25 animals are prepared each time. After development of bladder hypertrophy 4-8 animals are used per test.
Compounds are dissolved in PEG-200 and administered by gastric gavage or intraveneously in a volume of 5 ml/kg. For primary screening all drugs are administered at the arbitrary dose of 10 mg/kg p.o. to groups of 4 rats.
The animals are anesthetized with halothane. Through a midline incision the bladder and urethra are exposed and a ligature of 4-0 silk is tied around the proximal urethra in the presence of a stainless steel rod (1 mm diameter) to produce a partial occlusion. The rod is then removed. The abdominal region is closed using surgical staples and each rat receives 150,000 units of bicillin C-R. The animals ar allowed six weeks to develop sufficient bladder hypertrophy. After six weeks, the ligature is removed under halothane anesthesia and a catheter (PE 60) with a cuff is placed in the dome of the bladder and secured with a purse string suture. The catheter is tunneled under the skin and exteriorized through an opening in the back of the neck. The abdominal incision is sutured and the free end of the catheter sealed. In order to prevent infections the rats receive an injection of bicillin C-R (150000 units/rat). Two days later the animals are used in cystometrical evaluations. The animals are placed in the metabolic cages and the catheter is attached (using a "T" connector) to a Statham pressure transducer (Model P23Db) and to a Harvard infusion pump. A plastic beaker attached to a force displacement transducer (Grass FT03) is placed under the rat's cage to collect and record urine volume. Animals are allowed 15-30 min to rest before the saline infusion (20 ml/hr for 20 minutes) is started for the first cystometry period. […]
The following urodynamic variables are recorded: […]
The mean value of each variable is calculated before and after compound administration. For each compound the changes in the variables measured are compared to the values obtained before treatment and expressed as percent inhibition. The data are also subjected to 2-way analysis of variance to determine significant (p<0.05) changes in the variable measured. […]

[2] = tested on: isolated rat bladder strips (smooth muscle); test: Inhibition of contractions in isolated rat bladder strips; set-up: species or system Sprague-Dawley rat; settings: 15 mM KCl-enhanced contractions; for IC50: 0.5 h, 30 minute challenge, ± spread; for inhibition at 30 µM: read-out: Percent inhibition at 30 μM (footnote a)
Experimental: The smooth muscle relaxing activity of the compounds of this invention was established in accordance with standard pharmaceutically accepted test procedures with representative compounds as follows:
Sprague-Dawley rats (150-200 g) are rendered unconscious by CO2 asphyxiation and then euthanized by cervical dislocation. The bladder is removed into warm (37° C.) physiological salt solution (PSS) of the following composition (mM): NaCl, 118.4; KCl, 4.7; CaCl2, 2.5; […]; NaHCO3, 24.9; KH2 PO4, 1.2; glucose, 11.1; EDTA, 0.023; gassed with 95% O2; […]; pH 7.4 The bladder is opened and then cut into strips 1-2 mm in width and 7-10 mm in length. The strips are subsequently suspended in a 10 mL tissue bath under an initial resting tension of 1.5 g. The strips are held in place by two surgical clips one of which is attached to a fixed hook while the other is attached to an isometric force transducer. […] The carbachol is then washed out and the tissue allowed to relax to its resting level of activity. Following a further 30 min. period of recovery an additional 15 mM KCl are introduced into the tissue bath. This increase in KCl concentration results in a large increase in the amplitude of spontaneous contractions (and initiation of contractions in previously quiescent strips) superimposed upon a small increase in basal tone. Following stabilization of this enhanced level of contractile activity, incremental increases in the concentration of test compound or vehicle are introduced into the tissue bath. Contractile activity is measured for each compound or vehicle concentration during the last minute of a 30 minute challenge.
The isometric force developed by the bladder strips is measured using a […] to elicit 50% inhibition of pre-drug contractile activity (IC50 concentration) and is calculated from this concentration-response curve.

| Structure (SMILES) | IC50 [2] [nM] | other results |
| --- | --- | --- |
| C[C@@H](Nc1c(NCc2ccc(F)cc2)c(=O)c1=O)C(C)(C)C [Example 1, (R)-3-(4-Fluoro-benzylamino)-4-(1,2,2-trimethyl-propylamino)-cyclobut-3-ene-1,2-dione] | 760 ± 460 | % Ampl: Percent change in the amplitude of spontaneous contractions in the hypertrophied rat bladder model [1]: -64 ± 3%; % Red (F): Percent reduction in the total number of spontaneous contractions in the hypertrophied rat bladder model [1]: 3 ± 25% |
| C[C@@H](Nc1c(NCc2ccc(C(F)(F)F)cc2)c(=O)c1=O)C(C)(C)C [Example 2, (R)-3-(4-trifluoromethyl-benzylamino)-4-(1,2,2-trimethyl-propylamino)-cyclobut-3-ene-1,2-dione] | 6500 ± 1900 |  |
| CC(C)(C)Nc1c(NCc2ccc(OC(F)(F)F)cc2)c(=O)c1=O [Example 3, 3-tert-Butylamino-4-(4-trifluoromethoxy-benzylamino)-cyclobut-3-ene-1,2-dione] |  | inhibition at 30 µM [2]: 16.2% |
| CC(C)(C)Nc1c(NCc2ccc(C(F)(F)F)cc2)c(=O)c1=O [Example 4, 3-tert-Butylamino-4-(4-trifluoromethyl-benzylamino)-cyclobut-3-ene-1,2-dione] | 6500 ± 870 |  |
| CC(C)(C)Nc1c(NCc2ccc(F)cc2)c(=O)c1=O [Example 5, 3-tert-Butylamino-4-(4-fluoro-benzylamino)-cyclobut-3-ene-1,2-dione] | 1500 ± 320 |  |
| C[C@@H](Nc1c(NCc2ccc(OC(F)(F)F)cc2)c(=O)c1=O)C(C)(C)C [Example 6, (R)-3-(4-trifluoromethoxy-benzylamino)-4-(1,2,2-trimethyl-propylamino)-cyclobut-3-ene-1,2-dione] |  | inhibition at 30 µM [2]: 20.4% |
| CCC(C)(C)Nc1c(NCc2ccc(F)cc2)c(=O)c1=O [Example 7, 3-(1,1-Dimethyl-propylamino)-4-(4-fluoro-benzylamino)-cyclobut-3-ene-1,2 dione] | 360 ± 140 | % Ampl: Percent change in the amplitude of spontaneous contractions in the hypertrophied rat bladder model [1]: -3 ± 35%; % Red (F): Percent reduction in the total number of spontaneous contractions in the hypertrophied rat bladder model [1]: 67 ± 2% |
| CC(C)(C)Nc1c(NCc2cccc(F)c2)c(=O)c1=O [Example 8, 3-tert-Butylamino-4-(3-fluoro-benzylamino)-cyclobut-3-ene-1,2-dione] | 2400 ± 360 |  |
| CC(C)(C)Nc1c(NCc2ccccc2F)c(=O)c1=O [Example 9, 3-tert-Butylamino-4-(2-fluoro-benzylamino)-cyclobut-3-ene-1,2-dione] | 2080 ± 250 |  |
| CC(C)(C)Nc1c(NCc2cccc(C(F)(F)F)c2)c(=O)c1=O [Example 10, 3-tert-Butylamino-4-(3-trifluoromethyl-benzylamino)-cyclobut-3-ene-1,2-dione] | 7900 ± 2700 |  |
| CC(C)(C)Nc1c(NCc2ccccc2C(F)(F)F)c(=O)c1=O [Example 11, 3-tert-Butylamino-4-(2-trifluoromethyl-benzylamino)-cyclobut-3-ene-1,2-dione] | 2300 ± 510 |  |
| CC(C)(C)Nc1c(NCc2cccc(OC(F)(F)F)c2)c(=O)c1=O [Example 12, 3-tert-Butylamino-4-(3-trifluoromethoxy-benzylamino)-cyclobut-3-ene-1,2-dione] | 13600 ± 3300 |  |
| C[C@@H](Nc1c(NCc2cccc(C(F)(F)F)c2)c(=O)c1=O)C(C)(C)C [Example 13, (R)-3-(3-trifluoromethyl-benzylamino)-4-(1,2,2-trimethyl-propylamino) cyclobut-3-ene-1,2-dione] |  | inhibition at 30 µM [2]: 40.1% |
| C[C@@H](Nc1c(NCc2ccccc2C(F)(F)F)c(=O)c1=O)C(C)(C)C [Example 14, (R)-3-(2-trifluoromethyl-benzylamino)-4-(1,2,2-trimethyl-propylamino) cyclobut-3-ene-1,2-dione] | 20400 ± 7800 |  |
| C[C@@H](Nc1c(NCc2ccccc2F)c(=O)c1=O)C(C)(C)C [Example 15, (R)-3-(2-fluoro-benzylamino)-4-(1,2,2-trimethyl-propylamino) cyclobut-3-ene-1,2-dione] | 1230 ± 220 |  |
| C[C@@H](Nc1c(NCc2cccc(OC(F)(F)F)c2)c(=O)c1=O)C(C)(C)C [Example 16, (R)-3-(3-trifluoromethoxy-benzylamino)-4-(1,2,2-trimethyl-propylamino)-cyclobut3-ene-1,2-dione] |  | inhibition at 30 µM [2]: 10% |
